Results from patent US20200361895A1, “NOVEL SULFONAMIDE CARBOXAMIDE COMPOUNDS” (Inflazome Limited, priority 2017, published 2020).
Structures can show the parent of a compound that is named as a salt.

These compounds were tested against NLRP3 (Homo sapiens, UniProt Q96P20) (assay: THP-1 cells pyroptosis assay (LPS + nigericin, resazurin readout; THP IC50)).
Type: cell-based
Set-up: Seed THP-1 cells (25,000 cells/well) containing 1.0 μg/ml LPS in 40 μl of RPMI medium; host or cells: THP-1 cells
Method in brief: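 Human THP-1 cells, 25,000/well in serum-free RPMI with 1 μg/ml LPS, treated 3 hrs at 37° C with compound (8-point half-log, 10 μM top, 0.1% DMSO), then 5 μM nigericin 1 hr. Viability by 100 μM resazurin fluorescence after 1-2 hrs; IC50 by 4-parameter fit.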

Sequence of NLRP3 (Q96P20 whole entry): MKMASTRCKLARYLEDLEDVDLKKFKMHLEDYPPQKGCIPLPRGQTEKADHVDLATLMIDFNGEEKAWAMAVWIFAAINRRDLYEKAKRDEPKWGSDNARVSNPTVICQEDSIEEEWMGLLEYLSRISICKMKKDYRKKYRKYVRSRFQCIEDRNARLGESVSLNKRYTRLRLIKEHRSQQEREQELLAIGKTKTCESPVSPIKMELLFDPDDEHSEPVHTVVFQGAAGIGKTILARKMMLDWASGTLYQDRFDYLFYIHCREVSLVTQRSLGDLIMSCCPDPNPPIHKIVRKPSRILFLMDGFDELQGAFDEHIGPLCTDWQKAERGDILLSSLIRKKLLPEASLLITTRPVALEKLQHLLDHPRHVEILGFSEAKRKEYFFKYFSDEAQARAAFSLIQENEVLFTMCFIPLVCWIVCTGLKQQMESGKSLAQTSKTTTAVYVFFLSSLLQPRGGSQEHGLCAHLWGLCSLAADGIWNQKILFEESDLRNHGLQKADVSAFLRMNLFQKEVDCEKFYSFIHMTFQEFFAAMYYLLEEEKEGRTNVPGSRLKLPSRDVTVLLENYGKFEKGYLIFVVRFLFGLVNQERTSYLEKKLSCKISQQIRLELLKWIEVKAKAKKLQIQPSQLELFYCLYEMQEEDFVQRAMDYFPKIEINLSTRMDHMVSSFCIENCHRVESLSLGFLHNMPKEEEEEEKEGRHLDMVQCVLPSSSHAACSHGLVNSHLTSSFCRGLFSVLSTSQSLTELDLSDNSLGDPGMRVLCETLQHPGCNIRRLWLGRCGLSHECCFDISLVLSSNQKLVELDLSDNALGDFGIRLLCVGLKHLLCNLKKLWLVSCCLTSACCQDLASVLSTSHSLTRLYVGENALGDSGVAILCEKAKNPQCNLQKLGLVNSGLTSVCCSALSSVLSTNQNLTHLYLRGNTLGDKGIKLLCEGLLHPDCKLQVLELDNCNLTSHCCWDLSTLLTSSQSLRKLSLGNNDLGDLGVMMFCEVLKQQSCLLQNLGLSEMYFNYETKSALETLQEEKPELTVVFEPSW

SMILES	IC50
O=C(Nc1c(C2CCOCC2)ccc2c1CCC2)NS(=O)(=O)c1ccn(C2CC2)n1 [Example 254, 1-Cyclopropyl-N-((5-(tetrahydro-2H-pyran-4-yl)-2,3-dihydro-1H-inden-4-yl)carbamoyl)-1H-pyrazole-3-sulfonamide]	≤ 5 µM
COc1cc(-c2cc(F)cc(C(C)C)c2NC(=O)NS(=O)(=O)CCc2ccccc2)ccn1 [Example 136, N-((4-Fluoro-2-isopropyl-6-(2-methoxypyridin-4-yl)phenyl)carbamoyl)-2-phenylethanesulfonamide]	≤ 0.5 µM
CC(C)c1cc(F)cc(-c2ccnc(C#N)c2)c1NC(=O)NS(=O)(=O)c1cncc(N(C)C)n1 [Example 102, N-((2-(2-Cyanopyridin-4-yl)-4-fluoro-6-isopropylphenyl)carbamoyl)-6-(dimethylamino)pyrazine-2-sulfonamide]	≤ 0.5 µM
CCN(CC)CCCS(=O)(=O)NC(=O)Nc1c(-c2ccnc(OC)c2)ccc2c1CCC2 [Example 148, 3-(Diethylamino)-N-((5-(2-methoxypyridin-4-yl)-2,3-dihydro-1H-inden-4-yl)carbamoyl)propane-1-sulfonamide]	≤ 0.5 µM
COc1cc(-c2ccc3c(c2NC(=O)NS(C)(=O)=O)CCC3)ccn1 [Example 143, N-((5-(2-Methoxypyridin-4-yl)-2,3-dihydro-1H-inden-4-yl)carbamoyl)methanesulfonamide]	≤ 1 µM
COc1cc(-c2ccc3c(c2NC(=O)NS(=O)(=O)c2nccnc2C(F)F)CCC3)ccn1 [Example 112, 3-(Difluoromethyl)-N-((5-(2-methoxypyridin-4-yl)-2,3-dihydro-1H-inden-4-yl)carbamoyl)pyrazine-2-sulfonamide]	≤ 1 µM
CC(C)n1ccc(S(=O)(=O)NC(=O)Nc2c(-c3cncn3C)ccc3c2CCC3)n1 [Example 240, 1-Isopropyl-N-((5-(1-methyl-1H-imidazol-5-yl)-2,3-dihydro-1H-inden-4-yl)carbamoyl)-1H-pyrazole-3-sulfonamide]	≤ 5 µM
CC(C)c1cc(F)cc(-c2ccnc(C(N)=O)c2)c1NC(=O)NS(=O)(=O)c1cc(CN(C)C)n(C)n1 [Example 67, 4-(2-(3-((5-((Dimethylamino)methyl)-1-methyl-1H-pyrazol-3-yl)sulfonyl)ureido)-5-fluoro-3-isopropylphenyl)picolinamide]	≤ 5 µM
CC(C)c1cc(F)cc(-c2cncc(Cl)c2)c1NC(=O)NS(=O)(=O)c1ccn(C(C)C)n1 [Example 16, N-((2-(5-Chloropyridin-3-yl)-4-fluoro-6-iso-propylphenyl)carbamoyl)-1-iso-propyl-1H-pyrazole-3-sulfonamide, partial ammonium salt]	≤ 5 µM
CC(C)c1cc(F)cc(-c2ccc(C#N)cc2)c1NC(=O)NS(=O)(=O)c1ccn(C(C)C)n1 [Example 9, N-((4′-Cyano-5-fluoro-3-iso-propyl-[1,1′-biphenyl]-2-yl)carbamoyl)-1-iso-propyl-1H-pyrazole-3-sulfonamide, sodium salt]	≤ 5 µM
CC(C)c1cc(F)cc(-c2cncn2C)c1NC(=O)NS(=O)(=O)c1ccn(C(C)C)n1 [Example 3, N-((4-Fluoro-2-iso-propyl-6-(1-methyl-1H-imidazol-5-yl)phenyl)carbamoyl)-1-iso-propyl-1H-pyrazole-3-sulfonamide]	≤ 5 µM
COc1cc(-c2ccc3ncccc3c2NC(=O)NS(=O)(=O)c2ccn(C(C)C)n2)ccn1 [Example 212, 1-Isopropyl-N-((6-(2-methoxypyridin-4-yl)quinolin-5-yl)carbamoyl)-1H-pyrazole-3-sulfonamide]	≤ 5 µM
CC(C)n1ccc(S(=O)(=O)NC(=O)Nc2c(-c3cncnc3)ccc3c2CCC3)n1 [Example 241, 1-Isopropyl-N-((5-(pyrimidin-5-yl)-2,3-dihydro-1H-inden-4-yl)carbamoyl)-1H-pyrazole-3-sulfonamide]	≤ 5 µM
CC(C)n1ccc(S(=O)(=O)NC(=O)Nc2c(-c3cccnc3)cc(F)cc2-c2cccnc2)n1 [Example 208, N-((4-Fluoro-2,6-di(pyridin-3-yl)phenyl)carbamoyl)-1-isopropyl-1H-pyrazole-3-sulfonamide]	≤ 5 µM
Cc1cnccc1-c1cc(F)cc(C(C)C)c1NC(=O)NS(=O)(=O)c1ccn(C(C)C)n1 [Example 22, N-((4-Fluoro-2-iso-propyl-6-(3-methylpyridin-4-yl)phenyl)carbamoyl)-1-iso-propyl-1H-pyrazole-3-sulfonamide]	≤ 1 µM
COc1cc(-c2cc(F)cc(C(C)C)c2NC(=O)NS(=O)(=O)c2ccn(C(C)C)n2)cc(C)n1 [Example 26, N-((4-Fluoro-2-iso-propyl-6-(2-methoxy-6-methylpyridin-4-yl)phenyl)carbamoyl)-1-iso-propyl-1H-pyrazole-3-sulfonamide]	≤ 5 µM
COc1cc(-c2cc(F)cc(C(C)C)c2NC(=O)NS(=O)(=O)c2nc(C)cc(C)n2)ccn1 [Example 115, N-((4-Fluoro-2-isopropyl-6-(2-methoxypyridin-4-yl)phenyl)carbamoyl)-4,6-dimethylpyrimidine-2-sulfonamide]	≤ 0.5 µM
CC(C)c1cccc(-n2ccnc2)c1NC(=O)NS(=O)(=O)c1ccn(C(C)C)n1 [Example 204, N-((2-(1H-Imidazol-1-yl)-6-isopropylphenyl)carbamoyl)-1-isopropyl-1H-pyrazole-3-sulfonamide]	≤ 5 µM
O=C(Nc1c(-c2ccncc2)cc(F)c2c1CCC2)NS(=O)(=O)Cc1ccccc1 [Example 130, N-((7-Fluoro-5-(pyridin-4-yl)-2,3-dihydro-1H-inden-4-yl)carbamoyl)-1-phenylmethanesulfonamide]	≤ 5 µM
COCCCS(=O)(=O)NC(=O)Nc1c(-c2ccnc(OC)c2)ccc2c1CCC2 [Example 156, 3-Methoxy-N-((5-(2-methoxypyridin-4-yl)-2,3-dihydro-1H-inden-4-yl)carbamoyl)propane-1-sulfonamide]	≤ 0.5 µM
Cc1cc(-c2cc(F)cc(C(C)C)c2NC(=O)NS(=O)(=O)c2ccn(C(C)C)n2)n(C)n1 [Example 11, N-((2-(1,3-Dimethyl-1H-pyrazol-5-yl)-4-fluoro-6-iso-propylphenyl)carbamoyl)-1-iso-propyl-1H-pyrazole-3-sulfonamide, partial ammonium salt]	≤ 0.5 µM
CC(C)CS(=O)(=O)NC(=O)Nc1c(-c2ccncc2)cc(F)c2c1CCC2 [Example 134, N-((7-Fluoro-5-(pyridin-4-yl)-2,3-dihydro-1H-inden-4-yl)carbamoyl)-2-methylpropane-1-sulfonamide]	≤ 1 µM
CN1CCC(CS(=O)(=O)NC(=O)Nc2c(-c3ccncc3)cc(F)c3c2CCC3)C1 (stereo not shown) [Example 165, N-((7-Fluoro-5-(pyridin-4-yl)-2,3-dihydro-1H-inden-4-yl)carbamoyl)-1-(1-methylpyrrolidin-3-yl) methanesulfonamide]	≤ 5 µM
CC(C)n1ccc(S(=O)(=O)NC(=O)Nc2c(-c3ccnc(OC4CCN(C)C4)c3)ccc3c2CCC3)n1 (stereo not shown) [Example 301, 1-Isopropyl-N-((5-(2-((1-methylpyrrolidin-3-yl)oxy)pyridin-4-yl)-2,3-dihydro-1H-inden-4-yl)carbamoyl)-1H-pyrazole-3-sulfonamide, sodium salt]	≤ 1 µM
CC(C)c1cc(F)cc(-c2cccnc2)c1NC(=O)NS(=O)(=O)C1CCN(C(C)C)CC1 [Example 93, N-((4-Fluoro-2-isopropyl-6-(pyridin-3-yl)phenyl)carbamoyl)-1-isopropylpiperidine-4-sulfonamide]	≤ 10 µM
